According to patent EP1068226B1, “LIPOPEPTIDES INDUCING T LYMPHOCYTIC CYTOTOXICITY BEARING AT LEAST ONE AUXILIARY T EPITOPE, AND USES FOR VACCINATION” (INSTITUT NATIONAL DE LA SANTE ET DE LA RECHERCHE MEDICALE …, priority 1998, dated 1999):
Residues, ends and D or L forms follow the SMILES beside them. *: point of attachment. Palmitoyl = CCCCCCCCCCCCCCCC(=O)*

Experiments:
[1] = Solubility and filterability of the lipopeptides; type: physicochemical
Method: Le lipopeptide n° 3 est soluble dans l'acide acétique à 80%. Il peut être stérilisable par filtration sur un microfiltre de 0,22 µm. Il peut être en outre dissous dans une solution DMSO/eau 10% V/V. La mesure de la masse par spectrométrie PDMS-TOF confirme la présence du produit attendu. Le produit s'avère purifiable après injection d'une solution concentrée dans le DMSO, sur colonne Vydac C4, à 60°C, en utilisant un gradient d'acétonitrile, en présence du contre-ion TFA. Le produit est caractérisable par HPLC selon plusieurs méthodes résolutives conventionnelles, sur colonnes Vydac C4, Zorbax C3, Zorbax CN, Zorbax C1, à 60°C, à l'aide de gradients d'acétonitrile en présence d'un contre-ion TFA, ou en utilisant un modificateur organique, tel que l'isopropanol ou le butanol en isocratique.
Le trifluoroacétate du lipopeptide n°3 est soluble dans le DMSO (20-25 mg/mL), et reste soluble après dilution par de l'eau (DMSO 10%). L'échange du contre-ion trifluoroacétate pour un contre-ion acétate peut être réalisé par RP-HPLC sur une colonne C4: le produit dissous dans le DMSO à 80% est injecté sur la colonne équilibrée par le solvant A (acide acétique à 5% dans l'eau). Après élimination des produits non retenus (contre-ions TFA, sels), le produit est élué par l'aide d'un gradient du solvant A vers le solvant B (acétonitrile 80% - acide acétique à 5% - eau 15%). […]

[2] = tested on: CTL spécifiques dans les PBMC de patients séropositifs pour HIV; assay: ELISPOT IFN-γ test on human PBMC of HIV-seropositive donors (antigenicity); type: cell-based, homme; conditions: PBMC of patient HLA-B7 Z118; figure 6c
Method: Des donneurs séropositifs pour HIV ont été sélectionnés pour leur expression en molecules HLA de classe I selon des données bien connues de l'homme du métier en matière de restriction vis-à-vis des peptides et lipopeptides.
Des microplaques de nitrocellulose (Millipore, Bedford, MA) ont été incubées pendant la nuit à 4°C avec 1 µg/ml d'un anticorps de capture anti-Interféron-γ humain dilué dans un tampon carbonate/bicarbonate à pH 9,6 (100 µl/puits). Après cinq lavages, les plaques ont été saturées pendant 2 heures à 37°C avec 200 µl puis lavées. Pour les cultures de cellules humaines, le milieu complet était composé de RPMI 1640, 10% de sérum albumine bovine, 2mM glutamine, d'antibiotiques et de β2-mercaptoéthanol (5 x 10^-5M). Pour le test avec le peptide, des PBMC de patients ont été ajoutés directement dans les microplaques de nitrocellulose (2 x 10^5 cellules/puits) et incubés pendant 24 heures à 37°C en présence de […] du peptide. Pour le test des lipopeptides, les PBMC ont été incubés pendant la nuit à 37 °C avec les lipopeptides, puis ont été lavés et irradiés (3000 rads). Ces cellules ont été utilisées comme cellules stimulatrices dans une co-culture (2 x 10^5 cellules par puits) avec des PBMC syngéniques ( rapport 1/1) dans des plaques de nitrocellulose pendant 24 heures à 37°C. […]

For `CCCCCCCCCCCCCCCC(=O)NCCCC[C@H](NC(=O)CCCCCCCCCCCCCCC)C(=O)N[C@@H](CO)C(=O)N[C@@H](CO)C(=O)N[C@@H](CCC(N)=O)C(=O)N[C@@H](Cc1ccc(O)cc1)C(=O)N[C@H](C(=O)N[C@@H](CCCCN)C(=O)N[C@@H](C)C(=O)N[C@@H](CC(N)=O)C(=O)N[C@@H](CO)C(=O)N[C@@H](CCCCN)C(=O)N[C@@H](Cc1ccccc1)C(=O)N[C@H](C(=O)NCC(=O)N[C@H](C(=O)N[C@H](C(=O)N[C@@H](CCC(=O)O)C(=O)N[C@@H](CCCNC(=N)N)C(=O)NCC(=O)N[C@@H](CCCNC(=N)N)C(=O)N[C@@H](C)C(=O)N[C@@H](C)C(=O)NCC(=O)N[C@H](C(=O)NCC(=O)N[C@H](C(=O)N[C@@H](CC(C)C)C(=O)N[C@H](C(=O)N[C@H](C(=O)O)C(C)C)[C@@H](C)O)[C@@H](C)CC)[C@@H](C)CC)[C@@H](C)O)[C@@H](C)CC)[C@@H](C)CC)[C@@H](C)CC` [lipopeptide n°2] (Palmitoyl-K(Palmitoyl)SSQYIKANSKFIGITERGRAAGIGILTV-OH), the “solubilité dans l'eau” value ([1]; water) was “comportement voisin du lipopeptide n°1”.
In the case of `CCCCCCCCCCCCCCCC(=O)NCCCC[C@H](N)C(=O)N[C@@H](CO)C(=O)N[C@@H](CO)C(=O)N[C@@H](CCC(N)=O)C(=O)N[C@@H](Cc1ccc(O)cc1)C(=O)N[C@H](C(=O)N[C@@H](CCCCN)C(=O)N[C@@H](C)C(=O)N[C@@H](CC(N)=O)C(=O)N[C@@H](CO)C(=O)N[C@@H](CCCCN)C(=O)N[C@@H](Cc1ccccc1)C(=O)N[C@H](C(=O)NCC(=O)N[C@H](C(=O)N[C@H](C(=O)N[C@@H](CCC(=O)O)C(=O)N[C@@H](CCCNC(=N)N)C(=O)NCC(=O)N[C@@H](CCCNC(=N)N)C(=O)N[C@@H](C)C(=O)N[C@@H](C)C(=O)NCC(=O)N[C@H](C(=O)NCC(=O)N[C@H](C(=O)N[C@@H](CC(C)C)C(=O)N[C@H](C(=O)N[C@H](C(=O)O)C(C)C)[C@@H](C)O)[C@@H](C)CC)[C@@H](C)CC)[C@@H](C)O)[C@@H](C)CC)[C@@H](C)CC)[C@@H](C)CC` [lipopeptide n°4] (H-K(Palmitoyl)SSQYIKANSKFIGITERGRAAGIGILTV-OH), the “solubilité en milieu aqueux” value ([1]; aqueous medium) is reported as “n'est soluble en milieu aqueux qu'en présence de DMSO”.
In the case of `CCCCCCCCCCCCCCCC(=O)NCCCC[C@H](NC(=O)CCCCCCCCCCCCCCC)C(=O)N[C@@H](CO)C(=O)N[C@@H](CO)C(=O)N[C@@H](CCC(N)=O)C(=O)N[C@@H](Cc1ccc(O)cc1)C(=O)N[C@H](C(=O)N[C@@H](CCCCN)C(=O)N[C@@H](C)C(=O)N[C@@H](CC(N)=O)C(=O)N[C@@H](CO)C(=O)N[C@@H](CCCCN)C(=O)N[C@@H](Cc1ccccc1)C(=O)N[C@H](C(=O)NCC(=O)N[C@H](C(=O)N[C@H](C(=O)N[C@@H](CCC(=O)O)C(=O)N[C@@H](C)C(=O)N[C@@H](C)C(=O)N[C@@H](C)C(=O)N[C@@H](C)C(=O)N[C@@H](C)C(=O)NCC(=O)N[C@H](C(=O)NCC(=O)N[C@H](C(=O)N[C@@H](CC(C)C)C(=O)N[C@H](C(=O)N[C@H](C(=O)O)C(C)C)[C@@H](C)O)[C@@H](C)CC)[C@@H](C)CC)[C@@H](C)O)[C@@H](C)CC)[C@@H](C)CC)[C@@H](C)CC` [lipopeptide n° 1] (Palmitoyl-K(Palmitoyl)SSQYIKANSKFIGITEAAAAAGIGILTV-OH), the “solubilité dans un mélange DMSO/eau 10% V/V” value [1] is reported as “pratiquement insoluble”, the “solubilité dans l'eau” value ([1]; water) is reported as “pratiquement insoluble” and the “solubilité dans l'eau après lyophilisation” value ([1]; water, after lyophilisation) is reported as “totalement insoluble”.
With `CCCCCCCCCCCCCCCC(=O)NCCCC[C@H](NC(=O)CCCCCCCCCCCCCCC)C(=O)NCC(=O)N[C@@H](CCCNC(=N)N)C(=O)N[C@@H](CCC(N)=O)C(=O)N[C@@H](Cc1ccc(O)cc1)C(=O)N[C@H](C(=O)N[C@@H](CCCCN)C(=O)N[C@@H](C)C(=O)N[C@@H](CC(N)=O)C(=O)N[C@@H](CO)C(=O)N[C@@H](CCCCN)C(=O)N[C@@H](Cc1ccccc1)C(=O)N[C@H](C(=O)NCC(=O)N[C@H](C(=O)N[C@H](C(=O)N[C@@H](CCC(=O)O)C(=O)N[C@@H](CCCNC(=N)N)C(=O)NCC(=O)N[C@@H](CCCNC(=N)N)C(=O)N[C@@H](C)C(=O)N[C@@H](C)C(=O)NCC(=O)N[C@H](C(=O)NCC(=O)N[C@H](C(=O)N[C@@H](CC(C)C)C(=O)N[C@H](C(=O)N[C@H](C(=O)O)C(C)C)[C@@H](C)O)[C@@H](C)CC)[C@@H](C)CC)[C@@H](C)O)[C@@H](C)CC)[C@@H](C)CC)[C@@H](C)CC` [lipopeptide n° 3] (Palmitoyl-K(Palmitoyl)GRQYIKANSKFIGITERGRAAGIGILTV-OH) the “solubilité dans un mélange DMSO/eau 10% V/V” value [1] was “dissous”, the “solubilité dans l'acide acétique à 80%” value ([1]; acide acétique à 80%) was “soluble” and the solubilité ([1]; acétate salt, compared with the trifluoroacétate) was “comparable à celle du trifluoroacétate”. The stérilisation par filtration ([1]; microfiltre de 0,22 µm) was “stérilisable”, the “solubilité dans le DMSO” value ([1]; trifluoroacétate salt, DMSO) was 20 to 25 mg/mL and the “solubilité après dilution par de l'eau” value ([1]; trifluoroacétate salt, DMSO solution diluted with water (DMSO 10%)) was “reste soluble”.
With “NEF 68-76: épitope potentiel de HLA-B7 (FPVTPQVPL; UniProt P04601 68-76, looked up, fragment)” the “antigénicité (ELISPOT Interféron-γ)” value [2] was “induit efficacement une réponse CTL spécifique”.
